Experimental data reported in paper PMC6407579, “New flavonoid – N,N-dibenzyl(N-methyl)amine hybrids: Multi-target-directed agents for Alzheimer´s disease endowed with neurogenic properties” (Journal of Enzyme Inhibition and Medicinal Chemistry, 2019).
“And” between values parts separate entries of the source, which are not always exact repeats. Equal entries are not always repeated.

Experiments:
[1] = Oxygen radical absorbance capacity assay (ORAC); details: trolox taken as 1.0
[2] = biological target: T1, σ1R (Cavia porcellus, UniProt Q60492); assay: Sigma-1 receptor binding, [3H]-(+)-pentazocine competition; design: species or system guinea pig
T1 construct: the thawed membrane preparation of guinea pig brain cortex; from tissue; host or cells: guinea pig brain cortex membranes
T1 sequence (Q60492 whole entry): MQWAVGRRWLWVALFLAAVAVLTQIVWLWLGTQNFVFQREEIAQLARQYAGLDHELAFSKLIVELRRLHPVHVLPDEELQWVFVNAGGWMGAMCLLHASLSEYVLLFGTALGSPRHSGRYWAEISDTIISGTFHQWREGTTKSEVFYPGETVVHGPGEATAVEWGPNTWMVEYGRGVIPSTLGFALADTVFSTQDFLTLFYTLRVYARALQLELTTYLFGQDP

[3] = biological target: T2, human recombinant AChE (hAChE) (Homo sapiens, UniProt P22303); assay: biochemical; details: mean ± SEM (n = 3); read-out: hAChE IC50
T2 construct: purchased Sigma Chemical Co
T2 sequence (P22303 32-614): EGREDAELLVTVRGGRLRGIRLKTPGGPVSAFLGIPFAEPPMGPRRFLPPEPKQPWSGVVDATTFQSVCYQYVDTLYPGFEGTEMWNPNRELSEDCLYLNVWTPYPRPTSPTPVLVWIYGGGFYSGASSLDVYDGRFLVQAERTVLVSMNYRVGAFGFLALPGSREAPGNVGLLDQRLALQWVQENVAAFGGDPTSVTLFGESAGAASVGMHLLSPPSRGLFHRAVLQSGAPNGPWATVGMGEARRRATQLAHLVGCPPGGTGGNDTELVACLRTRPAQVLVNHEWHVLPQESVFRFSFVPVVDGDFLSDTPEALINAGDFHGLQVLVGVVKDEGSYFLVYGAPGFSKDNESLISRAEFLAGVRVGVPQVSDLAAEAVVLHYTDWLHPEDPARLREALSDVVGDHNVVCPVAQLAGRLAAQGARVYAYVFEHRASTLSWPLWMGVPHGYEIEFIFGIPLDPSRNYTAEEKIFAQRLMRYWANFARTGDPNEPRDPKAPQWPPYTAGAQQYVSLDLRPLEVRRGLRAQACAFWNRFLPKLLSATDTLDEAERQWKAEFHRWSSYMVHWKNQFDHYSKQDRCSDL
Description: The Ellman method was followed, using human recombinant AChE and BuChE from human serum. The assay solution consisted of 0.1 M phosphate buffer pH 8.0, 400 μM 5,5´-dithiobis(2-nitrobenzoic acid) (DTNB, Ellman’s reagent), 0.05 U/mL hAChE (Sigma Chemical Co.) or 0.024 U/mL hBuChE (Sigma Chemical Co.), and 800 μM acetylthiocholine iodide, or 500 μM butyrylthiocholine as the substrate of the enzymatic reaction, respectively. The compounds tested were added to the assay solution and preincubated with the enzyme for 5 min at 30 °C. After that period, the substrate was added.

[4] = biological target: T3, recombinant hMAO-A (Homo sapiens, UniProt P21397); assay: biochemical; assay type: biochemical
T3 sequence (P21397 1-527): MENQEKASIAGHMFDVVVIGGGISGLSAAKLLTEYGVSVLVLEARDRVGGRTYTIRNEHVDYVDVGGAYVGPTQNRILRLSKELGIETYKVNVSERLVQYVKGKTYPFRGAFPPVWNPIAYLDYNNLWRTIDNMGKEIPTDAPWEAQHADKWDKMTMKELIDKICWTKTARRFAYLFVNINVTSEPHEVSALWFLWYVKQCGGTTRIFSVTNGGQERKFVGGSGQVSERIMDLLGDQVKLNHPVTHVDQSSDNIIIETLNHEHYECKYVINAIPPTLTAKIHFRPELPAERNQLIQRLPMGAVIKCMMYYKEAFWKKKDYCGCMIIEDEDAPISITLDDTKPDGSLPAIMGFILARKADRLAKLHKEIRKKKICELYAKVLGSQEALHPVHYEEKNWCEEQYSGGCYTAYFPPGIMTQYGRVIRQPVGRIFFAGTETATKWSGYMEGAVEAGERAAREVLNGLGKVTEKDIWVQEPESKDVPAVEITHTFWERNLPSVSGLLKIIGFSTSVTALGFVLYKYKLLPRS

[5] = biological target: T4, recombinant hMAO-B (Homo sapiens, UniProt P27338); assay: biochemical; assay type: biochemical; details: mean ± SEM (n = 3); 100 µM highest concentration tested
T4 sequence (P27338 1-520): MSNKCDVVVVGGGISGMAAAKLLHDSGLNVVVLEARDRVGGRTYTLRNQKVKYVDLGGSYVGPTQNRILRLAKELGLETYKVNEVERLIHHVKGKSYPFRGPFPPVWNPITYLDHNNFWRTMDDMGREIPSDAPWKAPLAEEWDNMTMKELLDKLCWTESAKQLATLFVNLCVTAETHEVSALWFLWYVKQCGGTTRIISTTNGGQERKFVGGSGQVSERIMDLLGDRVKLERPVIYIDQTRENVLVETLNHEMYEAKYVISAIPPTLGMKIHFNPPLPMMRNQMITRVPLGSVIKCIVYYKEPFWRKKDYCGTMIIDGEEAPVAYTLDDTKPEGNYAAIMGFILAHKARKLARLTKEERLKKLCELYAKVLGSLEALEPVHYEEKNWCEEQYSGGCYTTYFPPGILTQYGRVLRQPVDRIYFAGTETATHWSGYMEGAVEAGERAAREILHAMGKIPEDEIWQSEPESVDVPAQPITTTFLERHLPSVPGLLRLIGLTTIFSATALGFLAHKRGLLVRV

[6] = In vitro blood-brain barrier permeation assay (PAMPA-BBB); assay type: in vitro ADME; details: pig, pH 7.4, porcine brain lipid, PBS:ethanol (70:30), 25 °C, read-out: PAMPA-BBB permeability in the CNS (Pe)
Description: Prediction of the brain penetration was evaluated using a parallel artificial membrane permeation assay (PAMPA-BBB), in a similar manner as previously described[36]^,[46]^,[51–53]. Pipetting was performed with a semi-automatic pipettor (CyBi®-SELMA) and UV reading with a microplate spectrophotometer (Multiskan Spectrum, Thermo Electron Co.). Commercial drugs, phosphate buffered saline solution at pH 7.4 (PBS), and dodecane were purchased from Sigma, Aldrich, Acros, and Fluka. Millex filter units (PVDF membrane, diameter 25 mm, pore size 0.45 μm) were acquired from Millipore. The porcine brain lipid (PBL) was obtained from Avanti Polar Lipids. The donor microplate was a 96-well filter plate (PVDF membrane, pore size 0.45 μm) and the acceptor microplate was an indented 96-well plate, both from Millipore. The acceptor 96-well microplate was filled with 200 μL of PBS: ethanol (70:30) and the filter surface of the donor microplate was impregnated with 5 μL of porcine brain lipid (PBL) in dodecane (20 mg mL^−1). Compounds were dissolved in PBS: ethanol (70:30) at 100 μg mL^−1, filtered through a Millex filter, and then added to the donor wells (200 μL). The donor filter plate was carefully put on the acceptor plate to form a sandwich, which was left undisturbed for 120 min at 25 °C. After incubation, the donor plate is carefully removed and the concentration of compounds in the acceptor wells was determined by UV-Vis spectroscopy. Every sample is analysed at five wavelengths, in four wells and at least in three independent runs, and the results are given as the mean ± standard deviation. In each experiment, 11 quality control standards of known BBB permeability were included to validate and normalise the analysis set.
To check if new compounds could be able to reach their CNS-targets, we used the in vitro parallel artificial membrane permeability assay for the blood-brain barrier (PAMPA-BBB) described by Di et al.[87], and partially modified by us for testing molecules with limited water-solubility[36]^,[46]^,[51–53]. The passive CNS-permeation of new compounds 1–13 through a lipid extract of porcine brain was measured at room temperature. In each experiment, 11 commercial drugs of known brain permeability were also tested and their permeability values normalised to the reported PAMPA-BBB data. […].

[7] = biological target: T5, σ2R (Rattus norvegicus, UniProt Q5U3Y7); assay: Sigma-2 receptor binding, [3H]-DTG competition
T5 construct: 150 µg of rat liver homogenate were incubated; from tissue; host or cells: rat liver homogenate
T5 sequence (Q5U3Y7 1-176): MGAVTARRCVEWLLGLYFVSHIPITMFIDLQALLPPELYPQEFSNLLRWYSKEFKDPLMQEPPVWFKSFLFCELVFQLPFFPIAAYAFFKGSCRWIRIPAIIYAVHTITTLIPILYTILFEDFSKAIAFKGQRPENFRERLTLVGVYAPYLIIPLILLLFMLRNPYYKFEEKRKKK

[8] = system: Aβ levels in cerebrospinal fluid; design: method as in PMID 29719179; details: cited from earlier work

CN(Cc1ccccc1)Cc1ccc(NC(=O)c2cc(=O)c3c(O)cc(O)cc3o2)cc1 [Compound 4, N-(4-((Benzyl(methyl)amino)methyl)phenyl)-5,7-dihydroxy-4-oxo-4H-chromene-2-carboxamide]
ORAC, trolox equivalents [1]: 1.2 mmol of trolox/mmol of tested compound and 1.2 ± 0.1 mmol of trolox/mmol of tested compound | Ki [2]: 510 ± 70 nM | Selectivity vs. σ1R (Kiσ2R/Kiσ1R) [2]: > 5.9 | IC50 [3]: 1900 ± 600 nM | preference for hMAO-A compared to hMAO-B [4]: at least 4.4 times | IC50 ([4]; mean ± SEM (n = 3), 100 µM highest concentration tested): 22800 ± 1500 nM | IC50 [5]: > 100000 nM | Papp at 120 min, 100 μg mL^−1 [6]: 14.7 ± 1.2 ×10⁻⁶ cm/s | Ki [7]: > 3000 nM

CN1C(=N)N[C@](C)(c2cc(NC(=O)c3ccc(F)cn3)ccc2F)CS1(=O)=O [verubecestat]
reduction of Aβ levels in cerebrospinal fluid [8]: up to 81%
